Reference: patent US5811439A, “Thiazolidinedione derivatives, method for preparing the derivatives and pharmaceutical compositions containing same” (Senga Pharmaceutical Laboratory Inc., priority 1995, dated 1998)

Assays:
3T3-L1 cells = assay: Glucose-uptake test (2-DOG uptake) in 3T3-L1 cells; format: cell-based; conditions: cpm divided by amount of proteins; for activity at 50 µg/mL: Mus musculus, 3T3-L1, 24 h, 50 μg/ml, read-out: 2-DOG Uptake (%) at a concentration of 50 μg/ml
Experimental: Glucose-uptake tests as a means for screening compounds for the effect of reducing the blood sugar level were carried out according to the following procedures. 1) Cell: The following cells were used. 3T3-L1 (purchased from Dainippon Pharmaceutical Co. Ltd.) 2) Reagents: The following reagents were used. DMEM (GIBCO); FBS (GIBCO); […] DMSO: dimethylsulfoxide (Wako Pure Chemical Co., Ltd.); ACS2 (Amersham); urea (Wako Pure Chemical Co., Ltd.); protein-determining kit (Bio Rad Code No.). 3) Instrument: The following instrument was used in the test. 24-well plate (Falcon) 3T3-L1 cells were dispersed in a 10% FBS-containing DME medium in a cell concentration of 10000 cells/ml, the resulting cell suspension was dispensed into a 24-well plate in an amount of 1 ml per well and the cells were cultivated in a 5% CO2 -incubator at 37° C. for 5 days. After soaking up the medium in the wells, the plate was washed once with PBS in an amount of 2 ml/well. […] The cells were cultivated in a sample compound-containing medium at 37° C. for 24 hours in a 5%-CO2 -incubator. After the cultivation, the medium was soaked up and the plate was washed three times with 2 ml/well each of PBS. […] After washing with 2 ml/well of PBS, the PBS was sufficiently soaked up. […] The lysate was also inspected for the amount of proteins using 0.2 ml out of the rest of the lysate, according to the microassay method using a protein-determining kit.

[1] = Acute toxicity test, oral administration to rats; conditions: rat, in vivo, orally administered
Experimental: The acute toxicity was determined by an acute toxicity test wherein each sample compound was orally administered to rats. The results (LD50 values) thus obtained are listed below: […]

Compound | activity at 50 µg/mL (3T3-L1 cells) [%] | LD50 [1] [mg/kg] | 2-DOG Uptake (%) at a concentration of 50 μg/ml (3T3-L1 cells; 24 hours) [%]
O=C1NC(=O)C(Cc2cccc3c2ccn3Cc2ccccc2)S1 (centres unmarked) [Example 3, 5-(1-benzylindol-4-yl)methyl-2,4-thiazolidinedione] | 217 | ≥ 2000 | –
O=C1NC(=O)C(Cc2cccc3c2ccn3Cc2ccc(F)cc2)S1 (centres unmarked) [Example 52, 5-[1-(4-fluorobenzyl)indol-4-yl]-methyl-2,4-thiazolidinedione] | 280 | ≥ 2000 | –
Cl.O=C1NC(=O)C(Cc2cccc3c2ccn3Cc2ccccn2)S1 (centres unmarked) [Example 337, 5-[1-(2-picolyl)indol-4-yl]methyl-2,4-thiazolidinedione hydrochloride] | – | – | 181
